The source of these data is ChEMBL document CHEMBL1129211, “Design and synthesis of sialyl Lex mimetics based on carbocyclic scaffolds derived from () quinic acid” (Bioorg Med Chem Lett, 1997).

Assay [1] concerns the target T1, E-selectin (Homo sapiens) (UniProt P16581).
T1 sequence (whole entry): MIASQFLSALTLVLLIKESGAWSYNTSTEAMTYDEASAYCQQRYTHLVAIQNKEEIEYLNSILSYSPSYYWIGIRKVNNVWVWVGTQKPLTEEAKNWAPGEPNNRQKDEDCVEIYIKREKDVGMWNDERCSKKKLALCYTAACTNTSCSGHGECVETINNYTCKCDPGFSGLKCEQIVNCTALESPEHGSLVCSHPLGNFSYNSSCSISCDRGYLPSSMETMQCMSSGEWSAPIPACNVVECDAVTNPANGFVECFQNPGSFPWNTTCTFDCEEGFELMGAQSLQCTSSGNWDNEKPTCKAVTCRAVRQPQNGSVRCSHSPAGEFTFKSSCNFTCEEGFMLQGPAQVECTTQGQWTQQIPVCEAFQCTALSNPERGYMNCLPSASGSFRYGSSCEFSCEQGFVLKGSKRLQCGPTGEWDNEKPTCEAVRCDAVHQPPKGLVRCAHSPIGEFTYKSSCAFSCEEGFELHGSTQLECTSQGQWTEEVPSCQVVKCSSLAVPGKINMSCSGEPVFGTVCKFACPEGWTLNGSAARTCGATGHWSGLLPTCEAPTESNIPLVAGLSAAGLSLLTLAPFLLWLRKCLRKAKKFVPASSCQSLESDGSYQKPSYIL
The experiment in a line: Tested for binding activity against Selectin E of the compound; inactive.

Assay [2] concerns the target T1, E-selectin (Homo sapiens). Put plainly: Tested for binding activity against Selectin E of the compound.

Turning to `CC1OC(OC(C)(C)COCC2CC(O)C(O)C(OCC(=O)O)C2)C(O)C(O)C1O` (centres undefined), the Activity in assay [1] is > 10 mM.
`C[C@@H]1O[C@@H](O[C@@H]2[C@@H](O)C[C@@](O)(CO)C[C@H]2O[C@@H]2O[C@@H](CO)[C@H](O)[C@H](OCC(=O)O)[C@@H]2O)[C@@H](O)[C@@H](O)[C@@H]1O`: the Activity in assay [1] was > 10 mM.
In assay [2], `CC(=O)N[C@H]1[C@H]([C@H](O)[C@H](O)CO)O[C@@](O[C@@H]2[C@H](O)[C@H](O[C@@H]3C[C@](O)(CO)C[C@H](O)[C@H]3O[C@@H]3O[C@@H](C)[C@@H](O)[C@H](O)[C@@H]3O)O[C@@H](CO)[C@@H]2O)(C(=O)O)C[C@H]1O` showed an Activity of 1 mM.
Take `CC1OC(OC(C)(C)COCC2(O)CCC(O)C(OCC(=O)O)C2O)C(O)C(O)C1O` (centres undefined): in assay [1], the Activity is > 10 mM.
